# Results as given in patent publication US20240309365A1, “MODULATING TRANSCRIPTIONAL CONDENSATES” (Whitehead Institute for Biomedical Research, priority 2020, published 2024).
# Numbered stars: 1 amine (or outer) side, 2 acyl side, 3 side chain; on linkers, the order of the positions; unused ones are H or OH. Bridge positions count the residues as written; N and C are the ends. Square brackets hold non-standard residues; d marks the D form. Peptide text beside a SMILES is read from it. I, II: the chains in the order shown. Actinocin(9to1) = Cc1c2oc3c(C)ccc(C(=O)[*:1])c3nc-2c(C(=O)[*:2])c(N)c1=O; NMeV = CN[C@H](C(=O)O)C(C)C; Sar = CNCC(=O)O
# How the values were obtained:
# [1] = test system: Med1-GFP condensates in mESCs; test: Condensate size in Med1-GFP mESCs after transcription inhibition; type: cell-based, mouse; conditions: 30 minutes; 100 μM DRB or 1 μM Actinomycin-D; 3D super-resolution microscopy
# Procedure: For small molecule inhibition experiments, cells were treated with 100 μM DRB (Sigma), or 1 μM Actinomycin-D (Sigma) in 2i media (detailed above) for 30 minutes, then imaged. For wash-out experiments, media was replaced with fresh 2i media and cells were allowed to recover for 1 hour, then the cells were imaged.
# Cells with endogenously-tagged Med1-GFP (Sabari et al., 2018) were plated on glass-bottom dishes (Mattek) coated with poly-L-ornithine (Sigma) and laminin (ThermoFisher). Mock (DMSO) and treated cells were imaged on a LSM 880 Confocal Microscope with Airyscan to obtain super-resolution z-stacks for at least 8 different fields containing multiple cells. For quantification, a manual threshold was applied equally across all conditions to remove background, and the size of Med1-GFP puncta was quantified in 3D using the 3D object counter plugin (Fiji/ImageJ).
# [2] = test system: reconstituted mammalian transcription system (Pol II, general transcription factors, Mediator, Gal4); test: Reconstituted in vitro transcription assay (droplets and qRT-PCR output); type: biochemical; conditions: 2 mM NTPs, 200 mM NaCl, 500 nM heparin, spermine at concentrations predicted to balance charge; for partitioning of template DNA into droplets: Cy3-labeled template DNA; for droplet area: added to the transcription reaction; for transcription (levels of RNA synthesis): qRT-PCR of template-derived RNA
# Procedure: For the size analysis of droplets formed in the reconstituted transcription assays (FIG. 3), brightfield images were subtracted by a median-filtered image (px=21), and droplets were manually segmented and their areas measured using ImageJ.
# The reconstituted in vitro transcription by RNA polymerase II was performed as previously described (Flores et al., 1992; LeRoy et al., 2008, 2019; Orphanides et al., 1998) with some modifications. A 1000 bp template DNA (unlabeled or Cy-3 labeled at 3′ end) containing adenovirus major late promoter, five Gal4 binding sites, TATA-box sequence and 561 bp from eGFP sequence was used. First, pre-initiation complex was assembled at RT for 15 min by mixing the following components: 50 nM RNA polymerase II enriched for hypophosphorylated CTD, 50 nM general transcription factors (TFIIA-B-D-E-F-H), and 5.75 nM template DNA, in a buffer containing 10 mM HEPES pH 7.5, 65 mM NaCl, 6.25 mM MgCl2, and 6.25 mM Sodium butyrate. Next, 10 nM Mediator complex and 10 nM GAL4 (Gal4 DNA binding domain fused to activation domain of VP16) were added to the reaction. Last, nucleotide mix containing 0.375 mM ATP, CTP, UTP, GTP (Invitrogen), 0.01 U RNase Inhibitor (Invitrogen), 1.25% PEG-8000 were added together with one of the following: a) various amounts of purified exogenous Pou5f1 RNA (0-500 nM) b) spermine (Sigma, S4264) c) extra NTPs (Invitrogen) d) extra NaCl e) heparin (Sigma, H3393). The reaction was incubated at 30° C. for 2 hr. RNA isolation was performed using RNeasy kit (Qiagen) by including a spike-in RNA control and an RNA carrier. Purified RNAs were treated with ezDNase (Invitrogen) for 30 min at 37° C. to eliminate the template DNA. Reverse transcription was performed using Superscript IV (Invitrogen) and qPCR was performed with SYBR Green Real Time PCR master mix (Invitrogen) to quantify the template derived transcriptional output. The Ct values of the reactions were normalized to the spike-in RNA control. The concentration of template derived transcriptional output was calculated by using a standard curve of qRT-PCR Ct values generated by known amounts of serially diluted GFP RNA.
# To visualize the droplets formed in the reconstituted transcription assay, using a micropipette (2-20 μL), 5 μL of the reactions were loaded onto a homemade chamber, which was prepared by attaching coverslips to a glass slide by parallel strips of double-sided tape (Sabari et al., 2018). After the droplets were settled on the glass coverslip, the images were collected by using RPI Spinning Disk confocal microscope with a 100× objective. To account for camera artifacts in the images, brightfield Images of droplets from reconstituted assays were subjected to a white tophat filter with a disk element radius of 21 using the MorphoLib plugin in ImageJ, then a Gaussian filter (sigma=1) was applied.
# MED1-IDR = biological target: T1, MED1-IDR (Homo sapiens, UniProt Q15648); test: In vitro droplet assay with MED1-IDR-GFP; type: biochemical; conditions: alternative polyanions instead of RNA
# T1 construct: Amino acids included; 6xHIS; made in house; host or cells: LOBSTR cells (E. coli), pET plasmid, Ni-NTA purification
# Procedure: Charge-balance calculations were performed (FIGS. 2, 9, 10 and 11) employing the following method. Net protein charge per molecule was calculated as Cp=#(R, K)−#(D, E) for the relevant sequence including the GFP tag. RNA charge per molecule was calculated as Cr=−(# […]), assuming an approximate charge of −1 per nucleotide (Lin et al., 2019). Next, the charge balance ratio was computed at a particular RNA and protein concentration as:
# The effective concentration of MED1-IDR in the assays was 1000 nM. The results were not quantitatively affected by inclusion/exclusion of the partial charge on Histidine residues, partly due to their low frequency on the protein sequences. For Heparin, a charge of roughly −3 per monomer was employed (Lin et al., 2020) and for single-stranded DNA, a charge of −1 per nt was employed. The fit is quantified by calculating Pearson correlation coefficient (r) was calculated between the median droplet partition value at different concentrations and the relevant charge-balance ratios and reported in FIGS. 2, 9, 10, and 11. A higher correlation implies that experimental data follow a similar qualitative trend as the estimated charge-balance curves. The code for performing these calculations are available at: […]
# Mediator complex = test system: T2, Mediator complex; test: In vitro droplet assay with purified Mediator complex; type: biochemical, human; conditions: 6-400 nM RNA added to 200 nM purified Mediator complex
# T2 construct: Purification of Human Mediator Complex from HeLa Nuclear Extract; endogenous in cells; host or cells: HeLa nuclear extract, multi-step column purification
# Procedure: HeLa nuclear protein extract (4 g) was prepared as described in (Dignam et al., 1983). Nuclear extract was dialyzed against BC100: BC buffer, pH 7.5+100 mM KCl (20 mM Tris-HCl, 20 mM B-Mercaptoethanol, 0.2 mM PMSF, 0.2 mM EDTA, 10% glycerol (v/v) and 100 mM KCl). The extract was fractionated on a phosphocellulose column (P11) with BC buffer containing 0.1, 0.3, 0.5 and 1M KCl. The Mediator complex eluted in the 0.5M KCL (BC500) fraction. This fraction was dialyzed against BC100 and loaded on a DEAE Cellulose column and sequentially fractionated with BC buffer containing 0.1, 0.3 and 0.5M KCl. […] This fraction was then directly loaded onto a DEAE-5 PW column (TSK) and eluted with a linear KCl gradient from 0.1 to 1M KCl in BC buffer. The Mediator complex eluted between 0.4 and 0.6M KCl. The fractions containing Mediator were pooled and dialyzed against BD700: BD buffer, (20 mM Hepes pH 7.5, 20 mM β-Mercaptoethanol, 0.2 mM PMSF, 0.2 mM EDTA, 10% glycerol, and 700 mM (NH4)2SO4). This fraction was then loaded onto a Phenyl-Sepharose Hydrophobic Interaction Chromatography (HIC) column and eluted with a linear reverse gradient from 0.7 to 0.025M (NH4)2SO4 in BD buffer. The Mediator complex eluted between 0.3 and 0.1M (NH4)2SO4. […]
# T1 sequence (Q15648 948-1573): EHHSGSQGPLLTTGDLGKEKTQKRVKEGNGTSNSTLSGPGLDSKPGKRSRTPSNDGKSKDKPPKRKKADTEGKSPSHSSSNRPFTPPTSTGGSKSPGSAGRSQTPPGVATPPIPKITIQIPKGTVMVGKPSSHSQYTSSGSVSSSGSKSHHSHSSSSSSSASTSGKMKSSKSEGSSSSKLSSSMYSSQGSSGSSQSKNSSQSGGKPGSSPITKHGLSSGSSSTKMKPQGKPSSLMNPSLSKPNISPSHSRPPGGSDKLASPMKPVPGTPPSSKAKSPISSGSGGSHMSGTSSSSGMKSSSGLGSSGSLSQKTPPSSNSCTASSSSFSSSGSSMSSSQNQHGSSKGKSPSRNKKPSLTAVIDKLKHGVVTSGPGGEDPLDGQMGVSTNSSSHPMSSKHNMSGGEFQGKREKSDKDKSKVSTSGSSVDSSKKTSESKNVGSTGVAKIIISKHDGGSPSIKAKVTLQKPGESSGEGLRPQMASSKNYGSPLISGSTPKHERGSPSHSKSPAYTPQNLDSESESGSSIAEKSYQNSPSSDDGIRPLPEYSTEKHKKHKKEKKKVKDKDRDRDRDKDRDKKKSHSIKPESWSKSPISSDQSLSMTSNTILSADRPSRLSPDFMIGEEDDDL
Molecule,partitioning of template DNA into droplets [2],droplet area [2],transcription (levels of RNA synthesis) [2],fit of MED1-IDR partitioning to the charge balance model (MED1-IDR),further results
"Cc1c2oc3c(C)ccc(C(=O)N[C@@H]4C(=O)N[C@H](C(C)C)C(=O)N5CCC[C@H]5C(=O)N(C)CC(=O)N(C)[C@@H](C(C)C)C(=O)O[C@@H]4C)c3nc-2c(C(=O)N[C@@H]2C(=O)N[C@H](C(C)C)C(=O)N3CCC[C@H]3C(=O)N(C)CC(=O)N(C)[C@@H](C(C)C)C(=O)O[C@@H]2C)c(N)c1=O [Actinomycin-D] (I: T[dV]P[Sar][NMeV] / II: T[dV]P[Sar][NMeV]; ester I:1-I:C, II:1-II:C; linker I:N-II:N via Actinocin(9to1))",–,–,–,–,increase in volume of Med1-GFP condensates [1]: ~2 fold
heparin,reductions,reductions,reductions,charge balance model also held,–
NCCCNCCCCNCCCN [spermine],increased,increased,increased,–,–
[Cl-].[Na+] [NaCl],reductions,reductions,reductions,–,–
"ssDNA: single-stranded DNA, 117 nt, SEQ ID NO: 51, alternative polyanion (nucleic acid, DNA, backbone and methylation of C not given here) DNA: GGTTCTGCCGCAGGTGGATCCGGTATGTCCACCGCCACGACAGTCGCCCCCGCGGGGATCCCGGCGACCCCGGGCCCTGTGAACCCACCCCCCCCGGAGGTCTCCAACCCCAGCAAG",–,–,–,charge balance model also held,–
"Trim28 enhancer RNA: enhancer RNA transcribed from the Trim28 super-enhancer, 594 nt, SEQ ID NO: 46 (nucleic acid, 47) AAATCTTGGAGAGAGTAGGACCTGAGCTGTTTCCTATTTCTACTACTTCCATAGACATCCATGGGTCTCCTTTGGTTCTTACCTTAAACTGCAGTTCTAGAGGCTCTTCTGGGGTTGTAAACTGCCCTTCCCCAACTCAGGAGCTCCCATTCCCTCCCCTTCCTAAACTGGCCCTACTTGTTCGCTCTACTTTATCTTGCCAGGGGTTGTAACAGCCTCCAATCTGTCTTGGATCAGGAAGCAGTTTCCATGGGGTATTTTAAGTGTAAGTTCCCCGGTGAAATGGAAACAAAAAGAATAAGGTATTCTGGGGACAGTGTAGGCCCACTAGGGTGTAGCTTGTTTTGTAAACACAGGACCTGAGTTTTGGACTTTGCCCTGGATTGTACCTGTCCCAGTGGGTTACCTTAGATGACACTAGCTTCATAATGCAAGAGGAGGTTAAGATGCTGGCTAGCGTTACCCACTTTGAAGGTACTGGAAAAGGAAGACCTGATTTACCCAAAAGAGGGAGATCTCTGTGCTTCTACCGCTTTAATTTTTTTTTTCTTTTTTTAAATATTTTTGCAGGACTGGTCACTGTAACTTTTTCCC",–,–,–,–,RNA concentration at which droplet sizes peaked (Mediator complex): 100 nM; effect on the size of Mediator/RNA droplets (Mediator complex): dose-dependent effect
